Assay [1] has as its system AHAS of double mutant between 1A and 1D. The following applies: herbicide not restated, follows the 100 μM imazethapyr sentence; cited from earlier work.
Assay [2] relates to AHAS of S653(At)N mutant in AHASL1D. Description: AHAS assay on extracts of S653(At)N mutants. The format is biochemical, Triticum aestivum. The source says:
(§1) The deletions, insertions, and substitutions of the protein sequences encompassed herein are not expected to produce radical changes in the characteristics of the protein. However, when it is difficult to predict the exact effect of the substitution, deletion, or insertion in advance of doing so, one skilled in the art will appreciate that the effect will be evaluated by routine screening assays. That is, AHASL function can be evaluated by AHAS enzyme activity assays in the presence and absence of an imidazolinone herbicide. See, for example, Singh et al. ((1988) Anal. Biochem. 171:173-179), herein incorporated by reference.
(§2) To obtain an understanding of the effect of each mutation on the level of enzyme sensitivity to the herbicides, AHAS assays were performed on S653(At)N mutants in all three genes using individuals from several backgrounds (representative data in FIG. 6A). […] Also, a double mutant between 1A and 1D retained 63% of AHAS activity (Pozniak et al. submitted). […] In durum wheat (T. turgidum) each homeolog appears to contribute equally to the AHAS pool (FIG. 6B).

In assay [3] the test system is AHAS of S653(At)N mutant in AHASL1B. Description: AHAS assay on extracts of S653(At)N mutants. The format is biochemical, Triticum aestivum.
Description: as §1, §2

Assay [4] deals with AHAS of S653(At)N mutant in AHASL1A. Description: AHAS assay on extracts of S653(At)N mutants. The following applies: 100 μM imazapyr, several backgrounds. The format is biochemical, Triticum aestivum.
Description: as §1, §2

Assay [5] relates to wheat lines with S653(At)N mutation in AHASL1B. Briefly: herbicide spray assay, greenhouse-grown mutagenized wheat lines. The format is in vivo, Triticum aestivum. The settings on record: 0-9 rating scale (0=no injury; 9=highest injury); after spraying with imazamox; mutation in 1B. The protocol:
(§3) The most common mutation observed in wheat results in a Ser to Asn substitution at the position equivalent to Ser653 in Arabidopsis (termed S653(At)N). Typically, 24 individuals from each mutagenized line were scored on a 0-9 rating scale (0=no injury; 9=highest injury) after spraying with a rate of imazamox sufficient for detecting differences in the greenhouse-grown plants (FIG. 4). For each line, the specific gene mutated was determined. A clear correlation was found between the ratings from herbicide spray assays and the specific homoeolog that was mutated at this position.

The test system of assay [6] is wheat lines with S653(At)N mutation in AHASL1D. Described as above. The format is in vivo, Triticum aestivum. The settings on record: 0-9 rating scale (0=no injury; 9=highest injury), after spraying with imazamox. Here is the method:
as §3

For assay [7], the system named is wheat lines with S653(At)N mutation in AHASL1A. The assay is described as above. The format is in vivo, Triticum aestivum. The settings on record: 0-9 rating scale (0=no injury; 9=highest injury); after spraying with imazamox; mutation in 1A. Here is the method: as §3

Molecules are shown by their SMILES.

As to `CCc1cnc(C2=NC(C)(C(C)C)C(=O)N2)c(C(=O)O)c1` (stereo not drawn) [imazethapyr], the AHAS activity retained in assay [1] was 63%. Also, the “AHAS activity in the presence of herbicide” value in assay [2] (100 μM imazethapyr, AHAS1D mutant extract, CDC Teal background) was found to be 40%; in assay [3] (100 μM imazethapyr, AHAS1B mutant extract, CDC Teal background), 30%.
As to `CC(C)C1(C)N=C(c2ncccc2C(=O)O)NC1=O` (stereo not drawn) [imazapyr], the “AHAS activity in the presence of herbicide (level of insensitivity)” value in assay [2] (100 μM imazapyr, AHASL1D S653(At)N mutant, several backgrounds) was 38%. The “AHAS activity in the presence of herbicide” value in assay [4] is recorded as 33%; in assay [3] (100 μM imazapyr, AHASL1B S653(At)N mutant, several backgrounds) it was 25%.
On to `COCc1cnc(C2=NC(C)(C(C)C)C(=O)N2)c(C(=O)O)c1` (stereo not drawn) [imazamox], for which the median injury in assay [5] was 5.4; in assay [6] it was 4.0; in assay [7] it was 6.4.

Values taken from patent publication US20060010514A1, “Polynucleotides encoding mature AHASL proteins for creating imidazolinone-tolerant plants” (BASF Plant Science GmbH, priority 2004, published 2006).
